IC50, Ki and IC90 data for 21 molecules are collected here from patent US10501440B2, “Heteroarylcarboxamide derivatives as plasma kallikrein inhibitors” (Boehringer Ingelheim International GmbH, priority 2017, dated 2019).

Where two headings read alike, the source gives them in different places.

What all share (assay type): biochemical
Assay [1] has as its target T1, KLKB1 (Homo sapiens (Human), UniProt P03952). Description: Inhibition of KLKB1 using an endpoint assay (fluorogenic substrate H-Pro-Phe-Arg-AMC). To be noted: endpoint assay, 1 h at room temperature, 0.10 μM H-Pro-Phe-Arg-AMC; read-out: IC50. The protocol: (§1) The ability of compounds of formula (I) to inhibit plasma kallikrein (KLKB1), Factor XIIa (FXIIa), Factor XIa (FXIa), Factor Xa (FXa), Factor IIa (alpha-thrombin; FIIa), plasmin, trypsin, tissue kallikrein 1 (KLK1), Factor Vila (FVIIa), or FVIIa complexed with Tissue Factor, phospholipids and CaCl2 (FVIIa/TF/PL/CaCl2) was determined using the following biochemical assays in assay buffer (100 mM Tris, 150 mM NaCL, adjusted to a pH of 7.8 with HCl, and containing 0.1% (w/v) BSA and 0.05% (v/v) Tween20) in the presence of 1% (v/v) DMSO:
Evaluation of the Inhibition of KLKB1 Using an Endpoint Assay
Human KLKB1 (0.01 U/mL; Enzyme Research Laboratories) or rat KLKB1 (0.625 nM; produced in-house) was incubated for 1 h at room temperature with 0.10 μM fluorogenic substrate H-Pro-Phe-Arg-AMC (11295 from Bachem) and various concentrations of the test compound in assay buffer. Subsequently, PPACK 11 (Calbiochem) was added as a stop solution to achieve a final concentration of 1 μM and fluorescence was measured using an Envision Reader (PerkinElmer) with the wavelength excitation setting of 355 nm and the wavelength emission setting of 460 nm.
(§2) The number of the compound corresponds to the number of the Example in the experimental section.

In assay [2] the target is T1, KLKB1. Description: Inhibition of KLKB1 (Ki), kinetic assay. To be noted: 24° C., 0.25 mM H-Pro-Phe-Arg-AMC; IC50 corrected for KM of substrate. The procedure: as §1
Evaluation of the Inhibition of KLKB1 (Ki)
Measurements were performed in a kinetic interval every 2nd minute for 16 min using a Spectramax M5 (Molecular Devices) with the following settings of the wavelength excitation of 350 nm and wavelength emission of 450 nm.
as §2
Calculation of pIC50 and Pki Values
The pIC50 values were then fitted using a four-parametric fitting procedure using GraphPad Prism (version 6; GraphPad Software, Inc.).
Where the IC50 is in molar and the KM value in mM.

The target of assay [3] is T1, KLKB1. In words: Inhibition of KLKB1 in kaolin activated human PPP. To be noted: for IC50: read-out: IC50. The procedure:
Evaluation of the Inhibition of KLKB1 in Kaolin Activated Human PPP
Platelet poor plasma (PPP) obtained from human wholeblood, anticoagulated with Na-Citrat, was incubated with various concentrations of the test compound together with either 25, 75, 250, or 750 μg/mL kaolin in assay buffer for 20 min at 37° C. such that for each kaolin dose used a concentration response was obtained for the test compound.
as §2

In assay [4] the target is T1, KLKB1. In words: Inhibition of human KLKB1 in dextran sulfate activated human PPP. To be noted: human platelet poor plasma (EDTA) activated with 12.5 μg/mL dextransulfate, 24° C.; read-out: IC50. The procedure: Evaluation of the Inhibition of Human KLKB1 in Dextran Sulfate Activated Human PPP
Platelet poor plasma (PPP) obtained from human wholeblood, anticoagulated with EDTA, was activated with 12.5 μg/mL dextransulfate for 7 min on ice. The activated PPP was incubated with various concentrations of the test compound in assay buffer. Afterwards the mixture was incubated at 24° C. with 0.25 mM fluorogenic substrate H-Pro-Phe-Arg-AMC (11295 from Bachem) and measurements were performed in a kinetic interval every 2nd minute for 16 min using a Spectramax M5 (Molecular Devices) with the following settings of the wavelength excitation of 350 nm and wavelength emission of 450 nm.
as §2

[5] abbreviates: human platelet poor plasma (Na-Citrat), 25, 75, 250 or 750 μg/mL kaolin, global fit.
Where [6] appears, read: human platelet poor plasma (Na-Citrat), 25, 75, 250 or 750 μg/mL kaolin, global fit, read-out: IC90.

T1 sequence (P03952 391-638 limits assumed): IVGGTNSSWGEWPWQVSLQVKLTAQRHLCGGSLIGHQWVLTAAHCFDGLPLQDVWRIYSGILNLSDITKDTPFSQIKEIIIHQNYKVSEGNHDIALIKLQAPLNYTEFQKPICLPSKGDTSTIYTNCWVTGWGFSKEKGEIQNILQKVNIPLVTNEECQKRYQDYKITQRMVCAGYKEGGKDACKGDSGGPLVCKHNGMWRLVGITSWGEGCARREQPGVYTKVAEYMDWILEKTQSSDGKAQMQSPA
T1 sequence (P03952 20-390 partner limits assumed): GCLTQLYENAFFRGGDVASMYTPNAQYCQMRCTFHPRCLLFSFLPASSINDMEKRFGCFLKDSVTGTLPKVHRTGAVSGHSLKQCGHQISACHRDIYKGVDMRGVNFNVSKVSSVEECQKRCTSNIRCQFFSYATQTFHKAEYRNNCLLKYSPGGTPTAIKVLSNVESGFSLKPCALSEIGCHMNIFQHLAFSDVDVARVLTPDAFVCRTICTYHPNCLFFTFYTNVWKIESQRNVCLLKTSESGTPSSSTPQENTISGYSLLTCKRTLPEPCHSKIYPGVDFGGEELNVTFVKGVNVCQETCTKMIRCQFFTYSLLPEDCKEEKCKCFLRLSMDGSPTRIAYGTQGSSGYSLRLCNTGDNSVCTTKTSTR

Regarding `Cc1nc(N2C[C@@H]3[C@H](C)[C@@H]3C2)ccc1Cn1cc(C(=O)N[C@@H]2CCc3c2ccnc3N)cn1` [Example 24, 1-[2-Methyl-6-((1S,5R,6R)-6-methyl-3-aza-bicyclo[3.1.0]hex-3-yl)-pyridin-3-ylmethyl]-1H-pyrazole-4-carboxylic acid ((R)-1-amino-6,7-dihydro-5H-[2]pyrindin-5-yl)-amide], the IC50 on KLKB1 [1] amounted to 0.6 nM.

For the molecule `Cc1nc(N2CC3CC3C2)ccc1Cn1cc(C(=O)N[C@@H]2CCc3c2ccnc3N)c(C(C)C)n1` (stereo partly shown) [Example 6], the IC50 on KLKB1 [1] is 1 nM.

For the molecule `Cc1nc(N2CC3CC3C2)ccc1Cn1cc(C(=O)N[C@@H]2CCc3c2ccnc3N)c(C(F)F)n1` (stereo partly drawn) [Example 19, N-[(5R)-1-Amino-5H,6H,7H-cyclopenta[c]pyridin-5-yl]-1-[(6-{3-azabicyclo[3.1.0]hexan-3-yl}-2-methylpyridin-3-yl)methyl]-3-(difluoromethyl)-1H-pyrazole-4-carboxamide], the IC50 on KLKB1 [1] is 1 nM.

`Cc1cc2c(c(N)n1)CC[C@H]2NC(=O)c1cn(Cc2ccc(N3CC4CC4C3)nc2C)nc1C` (stereo partly drawn) [Example 15, N-[(5R)-1-Amino-3-methyl-5H,6H,7H-cyclopenta[c]pyridin-5-yl]-1-[(6-{3-azabicyclo[3.1.0]hexan-3-yl}-2-methylpyridin-3-yl)methyl]-3-methyl-1H-pyrazole-4-carboxamide]: the Ki at KLKB1 [2] amounted to 0.4 nM. Also, the IC50 at KLKB1 [1] is 0.5 nM.

`Cc1nc(N2CC3CC3C2)ncc1Cn1cc(C(=O)N[C@@H]2CCc3c2ccnc3N)nn1` (stereo partly drawn) [Example 16, N-[(5R)-1-Amino-5H,6H,7H-cyclopenta[c]pyridin-5-yl]-1-[(2-{3-azabicyclo[3.1.0]hexan-3-yl}-4-methylpyrimidin-5-yl)methyl]-1H-1,2,3-triazole-4-carboxamide] showed a Ki at KLKB1 [2] of 2.2 nM. For the same molecule, the IC50 on KLKB1 [1] was determined as 5.3 nM.

Consider `Cc1nc(N2CC3(CC3)C2)ccc1Cn1cc(C(=O)N[C@@H]2CCc3c2ccnc3N)cn1` [Example 26, 1-[6-(5-Aza-spiro[2.3]hex-5-yl)-2-methyl-pyridin-3-ylmethyl]-1H-pyrazole-4-carboxylic acid ((R)-1-amino-6,7-dihydro-5H-[2]pyrindin-5-yl)-amide], for which, at KLKB1 [1], the IC50 is 1.2 nM.

In turn, `Cc1cc2c(c(N)n1)CC[C@H]2NC(=O)c1cnn(Cc2ccc(N3CC4CC4C3)nc2C)c1` (stereo partly shown) [Example 2] displayed an inhibition constant (Ki) at KLKB1 [2] of 0.3 nM. In addition, the 50% inhibitory concentration (IC50) on KLKB1 [1] is 0.3 nM; on KLKB1 [3] (setting [5]) it was 16.6 nM. Besides, the IC90 on KLKB1 [3] (setting [6]) was determined as 134 nM.

On to `Cc1cc2c(c(N)n1)CC[C@H]2NC(=O)c1cn(Cc2cnc(N3CC4C(C3)C4(F)F)nc2C)nn1` (stereo partly drawn) [Example 21, N-[(5R)-1-Amino-3-methyl-5H,6H,7H-cyclopenta[c]pyridin-5-yl]-1-[(2-{6,6-difluoro-3-azabicyclo[3.1.0]hexan-3-yl}-4-methylpyrimidin-5-yl)methyl]-1H-1,2,3-triazole-4-carboxamide], for which the IC50 at KLKB1 [1] was found to be 1.4 nM.

In the case of `Cc1nc(N2CC3C(C2)C3(F)F)ncc1Cn1cc(C(=O)N[C@@H]2CCc3c2ccnc3N)nn1` (stereo partly drawn) [Example 20, N-[(5R)-1-Amino-5H,6H,7H-cyclopenta[c]pyridin-5-yl]-1-[(2-{6,6-difluoro-3-azabicyclo[3.1.0]hexan-3-yl}-4-methylpyrimidin-5-yl)methyl]-1H-1,2,3-triazole-4-carboxamide], the IC50 on KLKB1 [1] is 3.9 nM.

On KLKB1 [2], `Cc1nc(N2C[C@@H]3[C@H](CO)[C@@H]3C2)ccc1Cn1cc(C(=O)N[C@@H]2CCc3c2ccnc3N)cn1` [Example 12] showed an inhibition constant (Ki) of 0.6 nM. The figures for the IC50 at KLKB1 [4] and at KLKB1 [1] were 46.7 nM and 1.9 nM, respectively.

As for `Cc1cc2c(c(N)n1)CC[C@H]2NC(=O)c1cnn(Cc2ccc(N3CC4C(C3)C4(F)F)nc2C)c1` (stereo partly drawn) [Example 10, N-[(5R)-1-Amino-3-methyl-5H,6H,7H-cyclopenta[c]pyridin-5-yl]-1-[(6-{6,6-difluoro-3-azabicyclo[3.1.0]hexan-3-yl}-2-methylpyridin-3-yl)methyl]-1H-pyrazole-4-carboxamide], on KLKB1 [2], the affinity, expressed as Ki, was 0.4 nM. In addition, the IC50 on KLKB1 [1] was determined as 0.4 nM; at KLKB1 [3] (setting [5]), 16.2 nM. Besides, the IC90 against KLKB1 [3] is 96.2 nM.

On to `COc1nn(Cc2ccc(N3CC4CC4C3)nc2C)cc1C(=O)N[C@@H]1CCc2c1ccnc2N` (stereo partly drawn) [Example 22, N-[(5R)-1-Amino-5H,6H,7H-cyclopenta[c]pyridin-5-yl]-1-[(6-{3-azabicyclo[3.1.0]hexan-3-yl}-2-methylpyridin-3-yl)methyl]-3-methoxy-1H-pyrazole-4-carboxamide], for which the IC50 on KLKB1 [1] turned out to be 1.1 nM.

Turning to `Cc1nc(N2CC3CC3C2)ccc1Cn1cc(C(=O)N[C@@H]2CCc3c2ccnc3N)c(C(F)(F)F)n1` (stereo partly shown) [Example 4], the Ki on KLKB1 [2] was 0.4 nM. For the same molecule, the half-inhibitory concentration (IC50) at KLKB1 [1] is 0.8 nM; at KLKB1 [3] (setting [5]), 18 nM. The 90% effect concentration (IC90) at KLKB1 [3] (setting [6]) came out at 446 nM.

As to `Cc1nc(N2CCC3(CC3)C2)ccc1Cn1cc(C(=O)N[C@@H]2CCc3c2ccnc3N)cn1` [Example 14], the Ki at KLKB1 [2] turned out to be 1.1 nM. Besides, the IC50 turned out to be 80.3 nM on KLKB1 [4] and 2 nM at KLKB1 [1].

Turning to `Cc1nc(N2CC3C(C2)C3(C)C)ccc1Cn1cc(C(=O)N[C@@H]2CCc3c2ccnc3N)cn1` (stereo partly drawn) [Example 23, N-[(5R)-1-Amino-5H,6H,7H-cyclopenta[c]pyridin-5-yl]-1-[(6-{6,6-dimethyl-3-azabicyclo[3.1.0]hexan-3-yl}-2-methylpyridin-3-yl)methyl]-1H-pyrazole-4-carboxamide], the IC50 at KLKB1 [1] was found to be 9.9 nM.

As to `Cc1nc(N2CC3C(C2)C3(F)F)ccc1Cn1cc(C(=O)N[C@@H]2CCc3c2ccnc3N)nn1` (stereo partly shown) [Example 8], at KLKB1 [1], the IC50 turned out to be 5.5 nM.

With `Cc1nc(N2CC3CC3C2)ccc1Cn1cc(C(=O)N[C@@H]2CCc3c2ccnc3N)c(C)n1` (stereo partly shown) [Example 3], the Ki on KLKB1 [2] came to 0.3 nM. The IC50 on KLKB1 [1] came to 0.7 nM; on KLKB1 [3] (setting [5]), 20.1 nM. For the same molecule, the IC90 on KLKB1 [3] (setting [6]) came to 238 nM.

With `Cc1cc2c(c(N)n1)CC[C@H]2NC(=O)c1cn(Cc2cnc(N3CC4CC4C3)nc2C)nn1` (stereo partly drawn) [Example 18, N-[(5R)-1-Amino-3-methyl-5H,6H,7H-cyclopenta[c]pyridin-5-yl]-1-[(2-{3-azabicyclo[3.1.0]hexan-3-yl}-4-methylpyrimidin-5-yl)methyl]-1H-1,2,3-triazole-4-carboxamide], at KLKB1 [2], the affinity, expressed as Ki, was 0.5 nM. Also, at KLKB1 [1], the IC50 was 1.2 nM.

Turning to `Cc1nc(N2CC3(CCC3)C2)ccc1Cn1cc(C(=O)N[C@@H]2CCc3c2ccnc3N)cn1` [Example 25, 1-[6-(2-Aza-spiro[3.3]hept-2-yl)-2-methyl-pyridin-3-ylmethyl]-1H-pyrazole-4-carboxylic acid ((R)-1-amino-6,7-dihydro-5H-[2]pyrindin-5-yl)-amide], the IC50 on KLKB1 [1] came out at 2.1 nM.

As for `Cc1nc(N2CC3C(C2)C3(F)F)ccc1Cn1cc(C(=O)N[C@@H]2CCc3c2ccnc3N)c(C(F)(F)F)n1` (stereo partly shown) [Example 7], the Ki at KLKB1 [2] came out at 1.9 nM. In addition, the figures for the IC50 at KLKB1 [1] and on KLKB1 [3] (setting [5]) were 1.1 nM and 17.9 nM, respectively. In addition, the IC90 on KLKB1 [3] (setting [6]) amounted to 199 nM.

In turn, `Cc1cc2c(c(N)n1)CC[C@H]2NC(=O)c1cnn(Cc2cnc(N3CC4CC4C3)nc2C)c1` (stereo partly drawn) [Example 17, N-[(5R)-1-Amino-3-methyl-5H,6H,7H-cyclopenta[c]pyridin-5-yl]-1-[(2-{3-azabicyclo[3.1.0]hexan-3-yl}-4-methylpyrimidin-5-yl)methyl]-1H-pyrazole-4-carboxamide] had a Ki at KLKB1 [2] of 0.5 nM. In addition, the half-maximal inhibitory concentration (IC50) on KLKB1 [1] was determined as 1 nM; at KLKB1 [3] (setting [5]) it was 52.2 nM. In addition, the IC90 on KLKB1 [3] amounted to 511 nM.
